18 molecules from ChEMBL document CHEMBL1201862, “PubChem BioAssay data set” (2004) can be followed below.

Targets include Cytochrome P450 2C9 (Homo sapiens, UniProt P11712); Cytochrome P450 3A4 (Homo sapiens, UniProt P08684); Cytochrome P450 2D6 (Homo sapiens, UniProt P10635).
Experiment [1] addresses G-protein coupled receptor 55 (Homo sapiens, UniProt Q9Y2T6). Nature of the experiment: selective activators of receptor GPR55 – imaging, U2OS cells, beta-arrestin-GFP redistribution, primary screen (AID 1961). The class given is functional.
The target of experiment [2] is T1, Histone-lysine N-methyltransferase NSD2 (Homo sapiens, UniProt O96028).
T1 sequence (O96028 whole entry): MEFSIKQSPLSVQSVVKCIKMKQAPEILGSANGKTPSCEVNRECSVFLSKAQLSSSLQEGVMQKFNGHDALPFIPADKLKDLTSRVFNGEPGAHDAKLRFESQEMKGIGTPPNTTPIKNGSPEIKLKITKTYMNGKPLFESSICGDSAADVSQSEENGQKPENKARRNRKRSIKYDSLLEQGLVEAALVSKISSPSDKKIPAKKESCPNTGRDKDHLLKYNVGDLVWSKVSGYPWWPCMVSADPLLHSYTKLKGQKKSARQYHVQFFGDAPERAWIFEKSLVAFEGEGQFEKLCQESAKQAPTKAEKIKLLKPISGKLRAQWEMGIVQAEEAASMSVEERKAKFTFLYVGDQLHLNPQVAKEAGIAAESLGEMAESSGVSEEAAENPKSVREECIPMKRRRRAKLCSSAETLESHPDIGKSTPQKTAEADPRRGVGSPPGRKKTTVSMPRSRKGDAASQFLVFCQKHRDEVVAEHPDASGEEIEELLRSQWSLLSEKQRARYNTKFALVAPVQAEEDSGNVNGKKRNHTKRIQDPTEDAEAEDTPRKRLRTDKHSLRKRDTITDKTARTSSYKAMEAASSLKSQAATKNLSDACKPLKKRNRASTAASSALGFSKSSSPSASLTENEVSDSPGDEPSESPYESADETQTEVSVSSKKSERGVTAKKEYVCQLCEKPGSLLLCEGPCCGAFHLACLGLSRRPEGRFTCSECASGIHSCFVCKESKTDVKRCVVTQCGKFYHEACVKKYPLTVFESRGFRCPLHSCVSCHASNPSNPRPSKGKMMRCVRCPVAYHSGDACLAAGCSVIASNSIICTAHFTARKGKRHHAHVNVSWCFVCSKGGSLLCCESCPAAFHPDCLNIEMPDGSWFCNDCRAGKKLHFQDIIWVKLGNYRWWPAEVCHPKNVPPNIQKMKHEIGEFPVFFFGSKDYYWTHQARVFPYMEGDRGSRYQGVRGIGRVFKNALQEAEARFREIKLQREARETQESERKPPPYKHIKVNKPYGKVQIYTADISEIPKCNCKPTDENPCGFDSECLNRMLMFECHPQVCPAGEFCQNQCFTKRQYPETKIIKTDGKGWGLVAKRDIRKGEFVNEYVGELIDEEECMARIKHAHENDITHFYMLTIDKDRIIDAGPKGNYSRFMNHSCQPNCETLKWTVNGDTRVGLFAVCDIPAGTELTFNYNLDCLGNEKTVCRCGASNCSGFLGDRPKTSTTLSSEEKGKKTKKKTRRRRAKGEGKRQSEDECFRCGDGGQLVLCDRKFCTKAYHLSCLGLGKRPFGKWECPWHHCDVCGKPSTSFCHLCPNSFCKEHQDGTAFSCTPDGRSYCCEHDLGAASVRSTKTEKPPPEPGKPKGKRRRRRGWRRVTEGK
The class given is biochemical.

Experiment [3] in a line: viability of HCT116 lacking mutant beta-catenin – cell-based, human colon tumor, dose response (AID 1045).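 Further: HCT116 colon tumor cells with beta catenin knocked out; cells exposed to compound for 60 hours.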 The class given is functional.
A short description of experiment [4]: viability of PTEN-deleted HCT116 cells – cell-based, HCT116 PTEN knockout, dose response (AID 1047).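 Further: HCT116 colon tumor cells with PTEN knocked out; cells exposed to compound for 60 hours before readout; potency for loss of cell viability measured by luminescence.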 The class given is functional.
The next experiment has as its system Escherichia coli. As to the kind of experiment: microbe, parasite or virus in culture.
In another experiment the target is T2, Protein RecA (Mycobacterium tuberculosis, UniProt P9WHJ3).
T2 sequence (P9WHJ3 whole entry): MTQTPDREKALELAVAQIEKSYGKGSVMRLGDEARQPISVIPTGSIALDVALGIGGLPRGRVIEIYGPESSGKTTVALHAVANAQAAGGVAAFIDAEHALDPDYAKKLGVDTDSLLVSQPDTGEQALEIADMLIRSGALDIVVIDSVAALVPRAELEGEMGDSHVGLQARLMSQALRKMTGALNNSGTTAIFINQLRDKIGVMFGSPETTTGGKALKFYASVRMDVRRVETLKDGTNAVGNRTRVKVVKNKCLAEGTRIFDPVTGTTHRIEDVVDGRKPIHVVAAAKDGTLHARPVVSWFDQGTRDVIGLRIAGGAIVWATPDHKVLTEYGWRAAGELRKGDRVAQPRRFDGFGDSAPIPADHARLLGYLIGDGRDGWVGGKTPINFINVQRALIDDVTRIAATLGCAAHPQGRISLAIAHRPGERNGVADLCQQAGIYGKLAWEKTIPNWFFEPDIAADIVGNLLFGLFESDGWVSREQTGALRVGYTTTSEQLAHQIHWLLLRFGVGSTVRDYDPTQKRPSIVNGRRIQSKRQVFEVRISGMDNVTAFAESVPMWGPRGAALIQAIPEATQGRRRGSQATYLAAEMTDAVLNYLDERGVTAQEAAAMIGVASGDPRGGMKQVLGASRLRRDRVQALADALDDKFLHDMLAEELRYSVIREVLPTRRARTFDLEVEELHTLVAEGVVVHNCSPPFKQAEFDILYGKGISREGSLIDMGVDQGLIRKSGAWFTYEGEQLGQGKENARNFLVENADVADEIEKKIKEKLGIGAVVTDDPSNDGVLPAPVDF
As to the kind of experiment: Fluorescence Cell-Free Homogeneous Dose Retest to Identify Inhibitors of RecA-Intein Splicing Activity. [Related pubchem assays (depositor defined):AID2097, AID2223, AID489010, AID492950]. The class given is functional.

In experiment [5] the target is T3, Heat shock factor protein 1 (Mus musculus, UniProt P38532).
T3 sequence (P38532 whole entry): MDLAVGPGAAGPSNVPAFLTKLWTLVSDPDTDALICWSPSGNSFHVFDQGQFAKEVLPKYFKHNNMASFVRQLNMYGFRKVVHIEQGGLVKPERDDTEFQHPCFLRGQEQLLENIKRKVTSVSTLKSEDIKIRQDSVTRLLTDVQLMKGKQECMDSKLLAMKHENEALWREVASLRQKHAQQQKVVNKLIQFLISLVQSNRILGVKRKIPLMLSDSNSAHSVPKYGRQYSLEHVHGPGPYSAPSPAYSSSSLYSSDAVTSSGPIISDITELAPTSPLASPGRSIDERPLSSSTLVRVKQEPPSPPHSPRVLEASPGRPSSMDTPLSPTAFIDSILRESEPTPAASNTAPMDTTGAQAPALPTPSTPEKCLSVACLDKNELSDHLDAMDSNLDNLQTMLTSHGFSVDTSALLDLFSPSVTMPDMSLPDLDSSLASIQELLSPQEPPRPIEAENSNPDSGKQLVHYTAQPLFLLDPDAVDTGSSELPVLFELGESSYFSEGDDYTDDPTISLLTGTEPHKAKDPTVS
Nature of the experiment: enhancement of HSF1-driven luciferase signal – cell-based, NIH3T3, luminescence, dose retest, confirmation (AID 435004).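 Further: stress induced by proteasome inhibitor MG132 added 30 min after compound; luciferase reporter driven by HSF1 response element in NIH3T3 cells; actives raise luminescence as potentiators of the MG132 stress response.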 The class given is functional.

Experiment [6] concerns the target T4, Replicative DNA helicase DnaB (Mycobacterium tuberculosis, UniProt P9WMR3).
T4 sequence (P9WMR3 whole entry): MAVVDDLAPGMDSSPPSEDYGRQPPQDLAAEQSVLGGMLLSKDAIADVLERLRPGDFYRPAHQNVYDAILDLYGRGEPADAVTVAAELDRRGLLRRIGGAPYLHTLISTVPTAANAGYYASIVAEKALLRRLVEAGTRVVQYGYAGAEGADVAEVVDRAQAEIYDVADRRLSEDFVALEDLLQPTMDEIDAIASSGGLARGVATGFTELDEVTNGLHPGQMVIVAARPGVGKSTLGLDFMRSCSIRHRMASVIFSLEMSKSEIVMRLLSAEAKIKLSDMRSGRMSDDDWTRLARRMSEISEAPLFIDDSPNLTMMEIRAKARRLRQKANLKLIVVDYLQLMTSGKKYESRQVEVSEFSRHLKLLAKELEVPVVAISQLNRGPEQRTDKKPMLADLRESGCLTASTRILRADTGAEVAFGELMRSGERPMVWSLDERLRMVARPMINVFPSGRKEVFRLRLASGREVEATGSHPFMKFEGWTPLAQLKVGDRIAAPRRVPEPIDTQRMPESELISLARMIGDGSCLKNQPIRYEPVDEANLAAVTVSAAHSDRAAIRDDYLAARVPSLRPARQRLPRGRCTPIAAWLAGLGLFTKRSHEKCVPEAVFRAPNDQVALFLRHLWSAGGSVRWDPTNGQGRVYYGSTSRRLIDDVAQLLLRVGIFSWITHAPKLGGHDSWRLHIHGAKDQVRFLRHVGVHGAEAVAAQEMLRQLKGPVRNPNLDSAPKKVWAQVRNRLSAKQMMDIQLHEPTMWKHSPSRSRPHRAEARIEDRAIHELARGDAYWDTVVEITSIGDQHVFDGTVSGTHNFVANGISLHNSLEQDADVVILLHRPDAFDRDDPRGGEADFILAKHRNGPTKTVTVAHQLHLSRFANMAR
As to the kind of experiment: DnaB intein splicing inhibitors, dose response, biochemical, cell-free fluorescence (AID 449749). The class given is functional.

A short description of experiment [7]: HEK-293T cell viability reduction – luminescence, B-cell screen hits, cytotoxicity control for BCR NF-kB inhibitor project, dose response (AID 489021).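 Further: HEK-293T cells carrying an NF-kB luciferase reporter; cells exposed to compound for about 14 hours before viability readout.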 The class given is functional, cell-based.
For the next experiment, the target named is Genome polyprotein (dengue virus type 2, UniProt P29990). Nature of the experiment: flavivirus cap methylation enzyme inhibition – biochemical, confirmation dose response, primary screen (AID 588689). The class given is functional.
Genome polyprotein, sequence (P29990 2492-3391 limits assumed): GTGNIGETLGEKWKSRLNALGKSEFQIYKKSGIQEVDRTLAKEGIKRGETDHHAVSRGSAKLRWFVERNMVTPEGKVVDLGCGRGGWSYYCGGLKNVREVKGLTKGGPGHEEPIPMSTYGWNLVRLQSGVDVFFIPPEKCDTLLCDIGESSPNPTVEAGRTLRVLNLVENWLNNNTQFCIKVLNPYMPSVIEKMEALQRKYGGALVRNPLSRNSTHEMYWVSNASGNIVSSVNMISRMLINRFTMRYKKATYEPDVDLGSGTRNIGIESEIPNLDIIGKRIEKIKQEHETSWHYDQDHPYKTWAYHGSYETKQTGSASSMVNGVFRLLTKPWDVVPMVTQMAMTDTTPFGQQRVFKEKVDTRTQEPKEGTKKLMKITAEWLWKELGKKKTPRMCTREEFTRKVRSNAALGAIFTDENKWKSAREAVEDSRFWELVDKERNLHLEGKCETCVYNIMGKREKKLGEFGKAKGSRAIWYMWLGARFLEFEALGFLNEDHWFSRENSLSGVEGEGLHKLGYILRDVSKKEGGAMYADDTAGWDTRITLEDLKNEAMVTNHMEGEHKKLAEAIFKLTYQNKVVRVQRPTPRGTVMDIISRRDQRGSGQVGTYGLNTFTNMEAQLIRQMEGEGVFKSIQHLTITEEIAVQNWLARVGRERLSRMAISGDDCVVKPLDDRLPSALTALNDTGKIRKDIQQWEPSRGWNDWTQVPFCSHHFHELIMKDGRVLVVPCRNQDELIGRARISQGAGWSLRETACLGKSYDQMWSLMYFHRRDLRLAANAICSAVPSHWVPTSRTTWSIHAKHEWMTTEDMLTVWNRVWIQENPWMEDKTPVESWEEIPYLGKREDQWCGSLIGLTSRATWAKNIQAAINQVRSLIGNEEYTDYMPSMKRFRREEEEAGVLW
The test system of a further experiment is INS1. Nature of the experiment: INS-1E survival protection against cytokine death – cell-based, luminescence, retest, dose response (AID 449756).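 Further: cell death triggered by IL-1 beta plus TNF-alpha plus IFN-gamma mixture; protective hits raise ATP signal compared with cytokine alone wells.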 The class given is functional. The following applies: Rattus norvegicus.

The source made the active and inactive calls.

G-protein coupled receptor 55, sequence (Q9Y2T6 whole entry): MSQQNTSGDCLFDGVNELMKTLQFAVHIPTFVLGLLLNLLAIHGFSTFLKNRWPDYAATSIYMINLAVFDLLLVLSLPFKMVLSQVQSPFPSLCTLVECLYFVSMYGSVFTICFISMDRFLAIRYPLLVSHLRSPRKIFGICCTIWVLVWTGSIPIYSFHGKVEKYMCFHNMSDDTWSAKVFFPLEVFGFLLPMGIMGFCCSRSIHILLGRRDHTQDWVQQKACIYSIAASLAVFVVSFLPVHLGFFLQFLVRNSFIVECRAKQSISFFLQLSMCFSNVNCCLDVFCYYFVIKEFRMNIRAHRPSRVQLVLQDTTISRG
Cytochrome P450 2D6, sequence (P10635 whole entry): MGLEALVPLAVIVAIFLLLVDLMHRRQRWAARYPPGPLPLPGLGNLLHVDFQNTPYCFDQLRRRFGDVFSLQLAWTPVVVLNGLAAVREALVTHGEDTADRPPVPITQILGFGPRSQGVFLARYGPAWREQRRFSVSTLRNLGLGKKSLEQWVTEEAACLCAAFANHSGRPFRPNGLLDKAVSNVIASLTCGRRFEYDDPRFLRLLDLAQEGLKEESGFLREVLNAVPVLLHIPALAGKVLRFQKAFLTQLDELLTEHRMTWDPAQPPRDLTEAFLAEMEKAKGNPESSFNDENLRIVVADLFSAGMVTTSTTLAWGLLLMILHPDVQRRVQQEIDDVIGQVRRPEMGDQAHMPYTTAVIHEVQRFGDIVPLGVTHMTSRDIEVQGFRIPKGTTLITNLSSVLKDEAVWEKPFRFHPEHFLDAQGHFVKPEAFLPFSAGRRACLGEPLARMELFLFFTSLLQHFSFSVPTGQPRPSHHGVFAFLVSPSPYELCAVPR
Cytochrome P450 3A4, sequence (P08684 whole entry): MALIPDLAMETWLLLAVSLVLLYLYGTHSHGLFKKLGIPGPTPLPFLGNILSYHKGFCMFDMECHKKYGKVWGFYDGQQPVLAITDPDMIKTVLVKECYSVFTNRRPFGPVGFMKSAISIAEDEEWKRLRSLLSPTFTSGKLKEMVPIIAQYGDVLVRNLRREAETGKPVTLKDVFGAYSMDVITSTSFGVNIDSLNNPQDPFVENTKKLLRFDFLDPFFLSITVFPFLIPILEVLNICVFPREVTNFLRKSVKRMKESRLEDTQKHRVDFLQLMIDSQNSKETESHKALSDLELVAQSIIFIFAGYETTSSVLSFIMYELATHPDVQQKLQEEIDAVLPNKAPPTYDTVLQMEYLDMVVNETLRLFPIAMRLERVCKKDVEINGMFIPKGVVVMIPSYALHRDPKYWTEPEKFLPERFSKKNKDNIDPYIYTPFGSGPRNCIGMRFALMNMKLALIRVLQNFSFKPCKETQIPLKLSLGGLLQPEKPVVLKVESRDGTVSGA
Cytochrome P450 2C9, sequence (P11712 whole entry): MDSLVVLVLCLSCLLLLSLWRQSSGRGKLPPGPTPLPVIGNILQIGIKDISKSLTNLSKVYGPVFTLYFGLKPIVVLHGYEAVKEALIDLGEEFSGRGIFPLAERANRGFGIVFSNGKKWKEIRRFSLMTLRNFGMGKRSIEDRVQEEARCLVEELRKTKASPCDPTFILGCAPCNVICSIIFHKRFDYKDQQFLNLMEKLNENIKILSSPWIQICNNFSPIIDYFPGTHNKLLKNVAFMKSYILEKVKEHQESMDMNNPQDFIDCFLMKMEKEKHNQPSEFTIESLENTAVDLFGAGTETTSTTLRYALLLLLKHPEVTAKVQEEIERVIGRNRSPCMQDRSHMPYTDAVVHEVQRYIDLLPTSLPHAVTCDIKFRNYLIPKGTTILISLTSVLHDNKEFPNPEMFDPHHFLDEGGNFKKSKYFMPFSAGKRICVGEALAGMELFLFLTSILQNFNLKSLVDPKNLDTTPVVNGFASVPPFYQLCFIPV

A word on the EC50: it is the midpoint of the concentration-response curve. With `CCc1noc(C)c1C(=O)Nc1nc(-c2ccc(Cl)cc2Cl)cs1`, the EC50 in experiment [1] is 3.56 µM (active).
The same measure, in the same setting: in the case of `O=C(N[C@H]1CCC(=O)N([C@H](CSc2ccccc2)Cc2ccccc2)CC1)OCc1ccccc1` it was 1.74 µM (active).
As usually defined, the AC50 is the concentration at which the activity in the assay is half-maximal. On to `CCN(CC)CCCNc1nc(-n2nc(C)cc2C)nc2sc3c(c12)CC(C)(C)OC3`, for which the AC50 in experiment [2] is > 20 µM (inactive).
In the case of `COc1ccccc1/C=C/C(=O)c1ccc(Cl)cc1`, the AC50 on Cytochrome P450 2C9 was 22.4 µM (inconclusive); at Cytochrome P450 3A4, 28.2 µM (inconclusive); at Cytochrome P450 2D6, 15.8 µM (inconclusive). Further, the EC50 in experiment [3] is 21.8 µM (active); in experiment [1] it was 25.5 µM (inactive); in experiment [4] it was 23.5 µM (active).
For the molecule `O=C(/C=C/c1ccco1)Nc1scc(-c2ccccc2)c1C(=O)O`, in experiment [2], the AC50 is > 20 µM (inactive).
On to `c1ccc(-n2c(SCC3CCCCO3)nnc2-c2cccs2)cc1` (configuration not stated), for which the AC50 in the experiment on Escherichia coli was 24.4 µM (active).
`COc1ccc2nc3cc(Cl)ccc3c(Nc3cc(C(C)C)c(O)cc3C)c2c1`: the EC50 at Protein RecA was 0.318 µM (active); in experiment [5] it was 154 µM (active); in [1], 1 µM (active). In addition, the AC50 in experiment [6] was > 380 µM (inactive).
With `CCCCN(CCCC)C(=O)c1cn(CC)c2cc(N3CCN(C)CC3)c(F)cc2c1=O`, the AC50 in the experiment with Escherichia coli is 1.67 µM (active).
One may read the IC50 as the concentration at which inhibition is half-maximal. In the case of `Cc1noc(C)c1CSc1nc2nncc-2c(O)n1-c1ccccc1`, in experiment [7], the IC50 was > 80 µM (inactive).
In the case of `COc1ccc(NS(=O)(=O)c2cc(NC(=O)c3cc(=O)c4ccccc4o3)ccc2OC)cc1`, in experiment [7], the IC50 is > 80 µM (inactive).
In the case of `O=C(CCc1nc(O)c2ccccc2n1)OCC(=O)c1cccc(Cl)c1`, the AC50 in the experiment on Escherichia coli was 41.4 µM (active).
On to `COc1ccc(S(=O)(=O)CC(=O)c2cc3cccc(C)c3oc2=O)cc1`, for which the IC50 at Genome polyprotein was 78.1 µM (active).
For the molecule `CC(=C\c1ccccc1)/C=C1/SC(=O)N(CCCC(=O)Nc2ccc(C(=O)O)cc2)C1=O`, the IC50 in [7] was > 80 µM (inactive).
Turning to `CC(=O)Nc1ccc(Sc2ccccc2C(=O)O)cn1`, the AC50 in experiment [2] is 6.95 µM (active).
For the molecule `CCN(CC)CCCNc1nc(CN2CCOCC2)nc2sc3c(c12)CCC3`, the AC50 in experiment [2] was > 20 µM (inactive).
In the case of `CCN(CC(=O)Nc1c(F)cccc1F)C(=O)c1cc([N+](=O)[O-])ccc1N1CCCCC1`, the IC50 in experiment [7] is > 80 µM (inactive).
Take `O=C(CCSc1nnc(-c2ccco2)o1)N1CCOCC1`: the AC50 in the experiment on Escherichia coli is 119 µM (active).
As for `CN(C)c1cc[n+](Cc2c(Cl)cccc2Cl)cc1`, in experiment [7], the IC50 is > 80 µM (inactive). In the experiment with INS1, the AC50 was 3.85 µM (active).
